{"source": "patent EP2802310B1", "about": "“NEW USE OF ZERUMBONE AND COMPOSITIONS COMPRISING ZERUMBONE” (Sederma, priority 2012, dated 2013)", "key": {"[1]": {"tested_on": "collagenase", "assay": "Dermal destruction by proteases in skin explants, collagenase", "conditions": "18ppm of zerumbone co-injected with the protease; five days at 37°C; confocal microscope", "procedure": "Principle: Once prepared, skin explants (person, abdominal skin) received an injection of elastase or collagenase that could proteolyse 30 µmol/min of elastin or collagen. In another case, the invention product (titrated at 18ppm of zerumbone) was co-injected with the protease to assess its ability to inhibit the proteolysis of constituents of the dermis, and thus of protection of the dermis. After five days of incubation at 37°C, the result was observed through a confocal microscope and compared to what was obtained in the case without protease at the same depth (60 µm)."}, "[2]": {"tested_on": "mature adipocytes", "assay": "Intracellular triglyceride quantity in mature adipocytes", "assay_type": "cell-based, human", "conditions": "Zerumbone 6ppm", "procedure": "Mature human adipocytes were treated with zerumbone to evaluate daily for 3 days. A daily titration of the released glycerol, reflecting lipolysis, was measured in the medium, before the media were changed in order to monitor the long-term effect.\nTable 5: comparison of the intracellula triglyceride quantity found in mature adipocytes\nTable 20: Comparison of the intracellular triglyceride content found in the mature adipocytes; compared effect of zerumbone, caffeine and of a mixture of zerumbone and caffeine."}, "[3]": {"tested_on": "Murine 3T3-L1 fibroblasts", "assay": "Anti-differentiating effect on adipocytes, intracellular G3PDH activity, 3T3-L1 line", "assay_type": "cell-based", "procedure": "Murine 3T3-L1 fibroblasts were seeded and induced to differentiate into adipocytes for 6 days with specific inducers in the presence of the evaluated products. When mature adipocytes were obtained, layers were crushed and intracellular G3PDH ([…]) activity is measured. A cell quantification test (Hoechst) on the same extracts complements the assay."}, "[4]": {"tested_on": "IL6", "assay": "IL6 synthesis by ELISA in adipocyte supernatants", "assay_type": "cell-based", "conditions": "Homo sapiens", "procedure": "Human preadipocytes were seeded and induced to differentiate in the presence of a cocktail of specific inducers and the evaluated products. At the end of differentiation (at 7 and 10 days), the IL6 content synthetized by the adipocytes is measured in the culture supernatants by ELISA method. Furthermore, after 10 days of differentiation, mature adipocytes are placed in contact of the products during 72h and the IL6 content is also measured in the cellular supernatants. In parallel, survival estimation was realized on these two assays (Hoechst tests)."}, "[5]": {"conditions": "72 h, adipocytes after differenciation (3days), read-out: IL6 % Var / control"}}, "note": "Where two headings read alike, the source gives them in different places."}
{"compound": "C/C1=C\\CC(C)(C)/C=C/C(=O)/C(C)=C/CC1", "note": "[Zerumbone, 2E, 6E, 9E-Humulatrien-8-one]", "values": [{"measurement": "integrity of the dermis under collagenase stress", "setting": "[1]", "value": "retains its integrity"}, {"measurement": "inhibition at 6 ppm", "setting": "[2]; Homo sapiens, Adipocyte, 72 h, read-out: Triglycerides Variation (%)", "value": 37, "unit": "%"}, {"measurement": "Triglycerides", "setting": "[2]", "value": "4947 ± 236", "unit": "µM/10^6cell."}, {"measurement": "Triglycerides Variation (%)", "setting": "[2]; 4320 min", "value": "-37%; p<0.01"}, {"measurement": "[G3PDH]", "setting": "[3]; 1ppm, differentiation for 6 days", "value": "304.2 +/- 9.9 mU/ 10^6 cell"}, {"measurement": "cytotoxicity", "setting": "[3]; 3T3-L1, tested doses", "value": "without apparent cytotoxicity"}, {"measurement": "[G3PDH]", "setting": "[3]; 3ppm, differentiation for 6 days", "value": "79.3 +/- 43.6 mU/ 10^6 cell"}, {"measurement": "differentiation of 3T3-L1", "setting": "[3]; 5ppm", "value": "total inhibition"}, {"measurement": "[G3PDH]", "setting": "[3]; 5ppm, differentiation for 6 days", "value": "3.4+/-10.3 mU/ 10^6 cell"}, {"measurement": "inhibition at 1 ppm", "setting": "[3]; Mus musculus, 3T3-L1, 144 h, 1ppm, differentiation for 6 days, read-out: [G3PDH] % Var / control", "value": 53, "unit": "%"}, {"measurement": "inhibition at 3 ppm", "setting": "[3]; Mus musculus, 3T3-L1, 144 h, 3ppm, differentiation for 6 days, read-out: [G3PDH] % Var / control", "value": 88, "unit": "%"}, {"measurement": "inhibition at 5 ppm", "setting": "[3]; Mus musculus, 3T3-L1, 144 h, 5ppm, differentiation for 6 days, read-out: [G3PDH] % Var / control", "value": 99, "unit": "%"}, {"measurement": "inhibition at 3 ppm", "setting": "[4]; [5]", "value": 33, "unit": "%"}, {"measurement": "inhibition at 5 ppm", "setting": "[4]; [5]", "value": 31, "unit": "%"}, {"measurement": "inhibition at 3 ppm", "setting": "[4]; 240 h, adipocytes in the course of differenciation (10days), read-out: IL6 % Var / control", "value": 49, "unit": "%"}, {"measurement": "inhibition at 5 ppm", "setting": "[4]; 240 h, adipocytes in the course of differenciation (10days), p=0.09, read-out: IL6 % Var / control", "value": 50, "unit": "%"}]}
